In paper PMC8472512, “Synthesis and Biochemical Evaluation of Baicalein Prodrugs” (Pharmaceutics, 2021):
≈ marks a conversion by molar mass, not a printed value.

Assays:
[1] = Metabolic stability in mouse liver S9 fractions; format: in vitro ADME; details: presence of the cofactor mixture (NADPH, UDPGA, PAPS, GSH), 37 °C, 60 min
Description: Working solutions of the test compounds (baicalein, 7-EC, and compounds 1–7) prepared in 50 vol% aqueous MeOH at 120 μM were added in triplicate to a 200 mM tris buffer (pH 7.4) containing mouse liver S9 fractions (1 mg protein/mL), alamethicin (25 μg/mL) and MgCl2 (2 mM). The final concentration of test compound was 3 μM. This mixture was pre-incubated at 37 °C in a shaking water bath for 5 min followed by addition of a cofactor mixture to following final concentrations: 1 mM NADPH, 0.5 mM UDPGA, 0.1 mM PAPS and 2.5 mM GSH. A 50 μL aliquot was taken at 0, 15, 30 and 60 min from each incubation mixture. These samples were then treated in the same way as described above in Mouse plasma stability assay. The supernatant was analyzed by Agilent 6530 Q−TOF LC−MS/MS system in a positive auto MS/MS scan mode. The liquid chromatography was conducted in the same condition as described above in mouse plasma stability assay. The analytical data were analyzed using Agilent MassHunter Quantitative Analysis Software (version B.05.00). MS chromatograms were extracted using calculated exact masses ([M+H]^+) for the analytes. Peak area ratios of the analytes vs. IS on the extracted MS chromatograms were used to calculate % remaining values at each time points.

Mouse pharmacokinetics = format: in vivo, male ICR mice; details: mice
Description: Pharmacokinetic studies were conducted with male ICR mice (8 weeks old; 30–35 g body wt.) purchased from Koatech Company (Pyeongtaek, Korea), as reported previously. Intravenous dosing solutions were prepared in EtOH/20% aqueous HPβCD (10/90 vol%) at 2 and 3 mg/mL for baicalein and compound 2, respectively. Oral dosing solutions were prepared in EtOH/tween 80/20% aqueous HPβCD (10/10/80 vol%) at 1 and 1.5 mg/mL for baicalein and compound 2, respectively. Plasma sample analysis was performed as described above in mouse plasma stability assay.

[2] = Chemical stability in physiologically-relevant solutions; format: physicochemical; details: 37 °C; for remaining at 4 h, 10 μM: at 4 h vs time 0
Description: Stock solutions of the test compounds (baicalein, compounds 1–7) prepared in MeOH at 10 mM were diluted in 0.1 N HCl and 0.1 M potassium phosphate buffer (pH 6.5 and 7.4) in triplicate to a final concentration of 10 μM. The mixtures were then incubated at 37 °C in a shaking water bath. Samples taken at 0, 1, 2, 3 and 4 h were analyzed by Thermo UltiMate 3000 series HPLC system. Chromatographic separation was performed on an Agilent Eclipse Plus C18 column (100 × 4.6 mm, 3.5 µm) kept at 40 °C with isocratic elution at a flow rate of 0.6 mL/min using a mixture of 0.1 vol% TFA in deionized water and acetonitrile as the mobile phase. The detection wavelengths were 277 and 270 nm for baicalein and compounds 1–7, respectively. Peak areas of the analytes on the UV chromatograms were used to calculate % remaining values at each time points.
The stability of baicalein and of the synthesized carbamate prodrugs (1–7) was determined in solutions mimicking gastric (0.1 N HCl, pH ~ 1), intestinal (pH 6.5 phosphate buffer), and physiological (pH 7.4 phosphate buffer) conditions. […]. […] […]. The degradation of the carbamate prodrugs was accompanied by the formation of baicalein under all conditions in this study (data not shown). Although the exact reason for this pH-dependent stability remains unknown, it is plausible that the side chains of amino acids somehow affect the hydrolysis of the carbamate bond of the prodrugs.

[3] = Kinetic solubility in phosphate buffer (pH 7.4); format: physicochemical; details: aqueous buffer, kinetic from dmso stock; shake-flask, 0.1 M phosphate buffer (pH 7.4), triplicate
Description: Stock solutions of the test compounds (baicalein and compounds 1–7) prepared at 10 mM in DMSO were diluted with 0.1 M potassium phosphate buffer (pH 7.4) in Mini-UniPrep filter vial (PTFE membrane, 0.45 μm) to a final concentration of 500 µM. The mixture was then shaken at 800 rpm for 90 min at rt and filtered by slowly pressing the upper tube of the Mini-Uniprep vial. The filtrate (300 µL) was then transferred to an HPLC vial containing same volume of acetonitrile. Sample analysis was conducted as described above in Chemical stability assay.

[4] = logD7.4 by shake-flask method; format: physicochemical; details: 0.1 M phosphate buffer (pH 7.4), duplicate
Description: The assay was conducted as reported previously. Briefly, 100 µM test solutions were prepared by diluting 10 mM stock solutions of the test compounds (baicalein and compounds 1–7) in 0.1 M potassium phosphate buffer (pH 7.4) saturated with 1-octanol. Standard solutions were prepared by diluting each test solution with the same volume of DMSO in HPLC vials. Partition solutions were prepared by mixing each test solution and 1-octanol saturated with 0.1 M potassium phosphate buffer (pH 7.4) at three different volume ratios, namely 1:0.02, 1:0.2 and 1:2, in HPLC vials. The partition solutions were then vortexed for 1 h at 1500 rpm at rt. The standard solutions and the aqueous phase (bottom layer) of each partition solution were analyzed directly from the HPLC vials as described above in Chemical stability assay. The logD7.4 values were calculated by the following equation: logD7.4=log(2×As/Ap−1)·Vt/Vo where As and Ap are, respectively, the peak areas of the standard and the aqueous phase of the partition solutions and Vt and Vo the volumes of test solution and 1-octanol of the partition solutions.

[5] = PAMPA (parallel artificial membrane permeability assay)
Description: (§1) The assay was conducted as reported previously [15]. The samples were analyzed as described below in mouse plasma stability assay.

in vitro = details: PAMPA
Description: as §1

[6] = male, ICR, mouse, iv, plasma analyte after single i.v. dose of baicalein 10 mg/kg
[7] = male, ICR, mouse, iv, plasma analyte after single i.v. dose of compound 2 15 mg/kg
[8] = male, ICR, mouse, po, plasma analyte after single p.o. dose of baicalein 10 mg/kg
[9] = male, ICR, mouse, po, plasma analyte after single p.o. dose of compound 2 50 mg/kg
[10] = pH 6.5 buffer (0.1 M potassium phosphate)
[11] = pH 7.4 buffer (0.1 M potassium phosphate)
[12] = male, ICR, mouse, in vivo, iv, plasma analyte after single i.v. dose of compound 2 15 mg/kg
[13] = male, ICR, mouse, in vivo, po, plasma analyte after single p.o. dose of compound 2 50 mg/kg

Row | Compound | half-life at 10 μM ([2]; buffer, pH 1, 0.1 N HCl, 10 μM) | remaining at 4 h, 10 μM ([2]; buffer, pH 1, 0.1 N HCl) | half-life at 10 μM [2, 10] | remaining at 4 h, 10 μM ([2]; pH 6.5 buffer) | half-life at 10 μM [2, 11] | remaining at 4 h, 10 μM ([2]; pH 7.4 buffer) | solubility kinetic at 90 min [3] | logD [4] | other results
1 | CCOc1ccc2ccc(=O)oc2c1 [7-Ethoxycoumarin] |  |  |  |  |  |  |  |  | metabolism in mouse liver S9 fractions [1]: rapid metabolism
2 | O=C(O)[C@H]1O[C@@H](Oc2cc3oc(-c4ccccc4)cc(=O)c3c(O)c2O)[C@H](O)[C@@H](O)[C@@H]1O [Baicalin] |  |  |  |  |  |  |  |  | time plasma analyte was above the quantitation limit (Mouse pharmacokinetics; after single i.v. dose of 10 mg/kg baicalein): 24 h; time plasma analyte was above the quantitation limit (Mouse pharmacokinetics; after single p.o. dose of 10 mg/kg baicalein, 24 h time course): 24 h; AUC(0-inf) (Mouse pharmacokinetics; [6]): 2600 ± 510 ng·h/mL; AUC(0-t) (Mouse pharmacokinetics; [6]): 2450 ± 490 ng·h/mL; Cmax (Mouse pharmacokinetics; [6]): 4590 ± 870 ng/mL; Tmax (Mouse pharmacokinetics; [6]): 0.1 h; half-life (Mouse pharmacokinetics; [6]): 6.2 ± 2.8 h; AUC(0-inf) (Mouse pharmacokinetics; [7]): 500 ± 170 ng·h/mL; AUC(0-t) (Mouse pharmacokinetics; [7]): 200 ± 88 ng·h/mL; Cmax (Mouse pharmacokinetics; [7]): 90 ± 10 ng/mL; Tmax (Mouse pharmacokinetics; [7]): 0.1 h; half-life (Mouse pharmacokinetics; [7]): 6.6 ± 1.6 h; AUC(0-inf) (Mouse pharmacokinetics; [8]): 4890 ± 1400 ng·h/mL; AUC(0-t) (Mouse pharmacokinetics; [8]): 4420 ± 1440 ng·h/mL; Cmax (Mouse pharmacokinetics; [8]): 2260 ± 670 ng/mL; Tmax (Mouse pharmacokinetics; [8]): 0.2 h; half-life (Mouse pharmacokinetics; [8]): 6.3 ± 3 h; AUC(0-t) (Mouse pharmacokinetics; [9]): 680 ± 210 ng·h/mL; Cmax (Mouse pharmacokinetics; [9]): 130 ± 40 ng/mL; Tmax (Mouse pharmacokinetics; [9]): 6 ± 2.8 h
3 | CC(C)C[C@H](NC(=O)Oc1cc2oc(-c3ccccc3)cc(=O)c2c(O)c1O)C(=O)O [Compound 1, (S)-2-((((5,6-Dihydroxy-4-oxo-2-phenyl-4H-chromen-7-yl)oxy)carbonyl)amino)-4-methylpentanoic acid] | 1.4 ± 0.3 h | 17.4 ± 2.1% | > 4 h | 92.9 ± 5% | > 4 h | 98 ± 3.6% | 443 ± 65.9 µM (≈ 189 µg/mL) | 0.39 | 
4 | CC(C)[C@H](NC(=O)Oc1cc2oc(-c3ccccc3)cc(=O)c2c(O)c1O)C(=O)O [Compound 2, (S)-2-((((5,6-Dihydroxy-4-oxo-2-phenyl-4H-chromen-7-yl)oxy)carbonyl)amino)-3-methylbutanoic acid] | > 4 h | 105 ± 3.5% | > 4 h | 92.8 ± 4.2% | > 4 h | 74.4 ± 6.6% | 479.2 ± 4.4 µM (≈ 198 µg/mL) | 0.04 | AUC(0-inf) (Mouse pharmacokinetics; [12]): 88700 ± 43200 ng·h/mL; AUC(0-t) (Mouse pharmacokinetics; [12]): 88600 ± 43200 ng·h/mL; Cmax (Mouse pharmacokinetics; [12]): 65100 ± 4290 ng/mL; Tmax (Mouse pharmacokinetics; [12]): 0.1 h; half-life (Mouse pharmacokinetics; [12]): 1.9 ± 0.6 h; clearance (Mouse pharmacokinetics; male, ICR, mouse, in vivo, iv, single i.v. dose of compound 2 15 mg/kg): 3.33 mL/min/kg; Vd (Mouse pharmacokinetics; male, ICR, mouse, in vivo, iv, single i.v. dose of compound 2 15 mg/kg, read-out: VSS): 0.4 ± 0.1 L/kg; AUC(0-inf) (Mouse pharmacokinetics; [13]): 5820 ± 1710 ng·h/mL; AUC(0-t) (Mouse pharmacokinetics; [13]): 5430 ± 1730 ng·h/mL; Cmax (Mouse pharmacokinetics; [13]): 2930 ± 590 ng/mL; Tmax (Mouse pharmacokinetics; [13]): 0.3 ± 0.09 h; half-life (Mouse pharmacokinetics; [13]): 1.7 ± 0.5 h; bioavailability (Mouse pharmacokinetics; male, ICR, mouse, in vivo, oral bioavailability of compound 2, p.o. 50 mg/kg vs i.v. 15 mg/kg): 2 ± 0.6%; Papp [5]: 0.04 ± 0.02 ×10⁻⁶ cm/s
5 | CC[C@@H](C)[C@H](NC(=O)Oc1cc2oc(-c3ccccc3)cc(=O)c2c(O)c1O)C(=O)O [Compound 3, (2S,3R)-2-((((5,6-Dihydroxy-4-oxo-2-phenyl-4H-chromen-7-yl)oxy)carbonyl)amino)-3-methylpentanoic acid] | > 4 h | 98.9 ± 5% | > 4 h | 90.2 ± 1.1% | > 4 h | 80.1 ± 2.5% | 447 ± 36.9 µM (≈ 191 µg/mL) | 0.25 | 
6 | C[C@@H](O)[C@H](NC(=O)Oc1cc2oc(-c3ccccc3)cc(=O)c2c(O)c1O)C(=O)O [Compound 4, (2S,3R)-2-((((5,6-Dihydroxy-4-oxo-2-phenyl-4H-chromen-7-yl)oxy)carbonyl)amino)-3-hydroxybutanoic acid] | > 4 h | 109 ± 3.4% | 2.8 ± 0.1 h | 37.3 ± 0.2% | 1.7 ± 0.1 h | 20 ± 1% | 347 ± 11.4 µM (≈ 144 µg/mL) | -0.05 | 
7 | O=C(N[C@@H](Cc1ccccc1)C(=O)O)Oc1cc2oc(-c3ccccc3)cc(=O)c2c(O)c1O [Compound 5, (S)-2-((((5,6-Dihydroxy-4-oxo-2-phenyl-4H-chromen-7-yl)oxy)carbonyl)amino)-3-phenylpropanoic acid] | 2.2 ± 0.4 h | 27.4 ± 5.1% | > 4 h | 78.5 ± 1.5% | > 4 h | 70.2 ± 2.5% | 375 ± 21.4 µM (≈ 173 µg/mL) | 0.43 | metabolism in mouse liver S9 fractions [1]: metabolized much faster than the other prodrugs
8 | C[C@H](NC(=O)Oc1cc2oc(-c3ccccc3)cc(=O)c2c(O)c1O)C(=O)O [Compound 6, (S)-2-((((5,6-Dihydroxy-4-oxo-2-phenyl-4H-chromen-7-yl)oxy)carbonyl)amino)propanoic acid] | > 4 h | 90.2 ± 4.1% | > 4 h | 81.8 ± 1.3% | > 4 h | 76.6 ± 1.7% | 400 ± 14.7 µM (≈ 154 µg/mL) | -0.18 | Papp [5]: < 0.01 ×10⁻⁶ cm/s
9 | O=C(O)CNC(=O)Oc1cc2oc(-c3ccccc3)cc(=O)c2c(O)c1O [Compound 7, 2-((((5,6-Dihydroxy-4-oxo-2-phenyl-4H-chromen-7-yl)oxy)carbonyl)amino)acetic acid] | 1.5 ± 0.3 h | 23.3 ± 3.6% | > 4 h | 82.2 ± 1% | > 4 h | 76.7 ± 0.3% | 357.1 ± 1.4 µM (≈ 133 µg/mL) | -0.39 | 
10 | O=C(N[C@H](CO)[C@H](O)c1ccc([N+](=O)[O-])cc1)C(Cl)Cl [chloramphenicol] |  |  |  |  |  |  |  |  | Papp (in vitro): > 1 ×10⁻⁶ cm/s
11 | NS(=O)(=O)c1cc2c(cc1Cl)NCNS2(=O)=O [hydrochlorothiazide] |  |  |  |  |  |  |  |  | Papp (in vitro): < 0.1 ×10⁻⁶ cm/s
12 | COCCc1ccc(OCC(O)CNC(C)C)cc1 (centres unmarked) [metoprolol] |  |  |  |  |  |  |  |  | Papp (in vitro): > 1 ×10⁻⁶ cm/s
13 | CC(C)(C)NCC(O)COc1cccc2c1CC(O)C(O)C2 (centres unmarked) [nadolol, reference compound] |  |  |  |  |  |  |  |  | Papp [5]: < 0.1 ×10⁻⁶ cm/s
14 | CC(C)NCC(O)COc1cccc2ccccc12 (centres unmarked) [propranolol] |  |  |  |  |  |  |  |  | Papp (in vitro): > 1 ×10⁻⁶ cm/s
